Source: the supplement of paper PMC11451515

System: NOMO1
Test: cell viability relative to DMSO control; higher = less cytotoxic
Conditions: 48 h
How it was run: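 NOMO1, SEM and P12-Ichikawa leukemia cells spent at least four passages adapting to each medium before use. They were seeded at 500 cells/well (NOMO1, SEM) or 1000 cells/well (P12-Ichikawa) in 5 μl in 1536-well plates and pin-dosed with library compounds in DMSO at 11 threefold steps from 47 μM down to 0.79 nM. After 48 h at 37°C, CellTiter-Glo One luminescence was read. Viability is reported as a percentage of the DMSO wells on each plate, with cell-free wells as background.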

[1] = HPLM + 10% dialyzed FBS, 0.000781 µM
[2] = HPLM + 10% dialyzed FBS, 0.00234 µM
[3] = HPLM + 10% dialyzed FBS, 0.00702 µM
[4] = HPLM + 10% dialyzed FBS, 0.0211 µM
[5] = HPLM + 10% dialyzed FBS, 0.0632 µM
[6] = HPLM + 10% dialyzed FBS, 0.19 µM
[7] = HPLM + 10% dialyzed FBS, 0.569 µM
[8] = HPLM + 10% dialyzed FBS, 1.71 µM
[9] = HPLM + 10% dialyzed FBS, 5.12 µM
[10] = HPLM + 10% dialyzed FBS, 15.4 µM
[11] = HPLM + 10% dialyzed FBS, 46.1 µM
[12] = RPMI 5 mM glucose + 10% FBS, 0.000781 µM
[13] = RPMI 5 mM glucose + 10% FBS, 0.00234 µM
[14] = RPMI 5 mM glucose + 10% FBS, 0.00702 µM
[15] = RPMI 5 mM glucose + 10% FBS, 0.0211 µM
[16] = RPMI 5 mM glucose + 10% FBS, 0.0632 µM
[17] = RPMI 5 mM glucose + 10% FBS, 0.19 µM
[18] = RPMI 5 mM glucose + 10% FBS, 0.569 µM
[19] = RPMI 5 mM glucose + 10% FBS, 1.71 µM
[20] = RPMI 5 mM glucose + 10% FBS, 5.12 µM
[21] = RPMI 5 mM glucose + 10% FBS, 15.4 µM
[22] = RPMI 5 mM glucose + 10% FBS, 46.1 µM
[23] = RPMI 5 mM glucose + 10% dialyzed FBS, 0.000781 µM
[24] = RPMI 5 mM glucose + 10% dialyzed FBS, 0.00234 µM
[25] = RPMI 5 mM glucose + 10% dialyzed FBS, 0.00702 µM
[26] = RPMI 5 mM glucose + 10% dialyzed FBS, 0.0211 µM
[27] = RPMI 5 mM glucose + 10% dialyzed FBS, 0.0632 µM
[28] = RPMI 5 mM glucose + 10% dialyzed FBS, 0.19 µM
[29] = RPMI 5 mM glucose + 10% dialyzed FBS, 0.569 µM
[30] = RPMI 5 mM glucose + 10% dialyzed FBS, 1.71 µM
[31] = RPMI 5 mM glucose + 10% dialyzed FBS, 5.12 µM
[32] = RPMI 5 mM glucose + 10% dialyzed FBS, 15.4 µM
[33] = RPMI 5 mM glucose + 10% dialyzed FBS, 46.1 µM

Compound | cell viability [1] [%] | cell viability [2] [%] | cell viability [3] [%] | cell viability [4] [%] | cell viability [5] [%] | cell viability [6] [%] | cell viability [7] [%] | cell viability [8] [%] | cell viability [9] [%] | cell viability [10] [%] | cell viability [11] [%] | cell viability [12] [%] | cell viability [13] [%] | cell viability [14] [%] | cell viability [15] [%] | cell viability [16] [%] | cell viability [17] [%] | cell viability [18] [%] | cell viability [19] [%] | cell viability [20] [%] | cell viability [21] [%] | cell viability [22] [%] | cell viability [23] [%] | cell viability [24] [%] | cell viability [25] [%] | cell viability [26] [%] | cell viability [27] [%] | cell viability [28] [%] | cell viability [29] [%] | cell viability [30] [%] | cell viability [31] [%] | cell viability [32] [%] | cell viability [33] [%]
COc1cc2c(cc1OC)CN(CCc1ccc(NC(=O)c3cc(OC)c(OC)cc3NC(=O)c3cnc4ccccc4c3)cc1)CC2 | 118 | 121 | 123 | 122 | 128 | 122 | 109 | 119 | 114 | 95.3 | 94.1 | 107 | 106 | 123 | 118 | 123 | 118 | 127 | 106 | 107 | 107 | 96.5 | 118 | 122 | 113 | 126 | 115 | 126 | 116 | 124 | 120 | 102 | 91.5
CNC(=O)c1ccc(Nc2cc(Nc3ccccc3[S+](=O)([O-])C(C)C)c3cc[nH]c3n2)nc1 | 98.4 | 105 | 111 | 105 | 116 | 102 | 108 | 91.7 | 77.6 | 70.6 | 31.7 | 98 | 100 | 101 | 103 | 102 | 106 | 108 | 102 | 49.2 | 51.9 | 25.1 | 89.1 | 99.1 | 101 | 106 | 102 | 102 | 109 | 95.7 | 57.2 | 56.7 | 34
COC(=O)c1ccc2c(c1)NC(=O)/C2=C(\Nc1ccc(N(C)C(=O)CN2CCN(C)CC2)cc1)c1ccccc1 | 92.1 | 92.1 | 106 | 99.5 | 106 | 91.3 | 89 | 103 | 87 | 91.9 | 84.4 | 98.3 | 96.8 | 96.5 | 97.4 | 89.3 | 110 | 109 | 97.8 | 92.6 | 83.4 | 83.1 | 92.7 | 93 | 94.7 | 90.8 | 93.5 | 95.2 | 85.3 | 88.9 | 88.5 | 96.8 | 98.5
COc1c(C)c2c(c(O)c1C/C=C(\C)CCC(=O)O)C(=O)OC2 | 116 | 109 | 106 | 107 | 116 | 95.4 | 115 | 100 | 86.7 | 45.2 | 32.6 | 101 | 107 | 102 | 94.4 | 109 | 94.9 | 102 | 109 | 84.6 | 47.5 | 22.3 | 98.4 | 96.7 | 105 | 97.3 | 100 | 108 | 84.7 | 89.5 | 90.4 | 58 | 38.3
CC(C)(O)CC(=O)NCCn1ccc2ncnc(Nc3ccc(Oc4cccc(C(F)(F)F)c4)c(Cl)c3)c21 | 96.8 | 109 | 107 | 120 | 89.5 | 98.9 | 107 | 85.5 | 80.5 | 54.7 | 33.9 | 95.1 | 109 | 103 | 105 | 101 | 97.9 | 111 | 95.3 | 96.8 | 79 | 53.6 | 106 | 100 | 95.3 | 108 | 99.8 | 109 | 107 | 97.1 | 81.9 | 67.8 | 44.1
O=C(CCCN1CCN(c2ccc(F)cc2)CC1)NC1c2ccccc2CSc2ccccc21 (centres undefined) | – | – | – | – | – | – | – | – | – | – | – | 135 | 109 | 108 | 125 | 126 | 117 | 112 | 117 | 74 | 103 | 71.1 | 121 | 120 | 125 | 114 | 118 | 112 | 113 | 106 | 99.9 | 90.8 | 58
Nc1c2c(nc3ccccc13)CCCC2 | 129 | 105 | 122 | 125 | 118 | 100 | 117 | 31.8 | 83.6 | 35.5 | 10.3 | 113 | 123 | 115 | 117 | 108 | 117 | 115 | 41.6 | 98.3 | 40.2 | 8.53 | 118 | 105 | 112 | 119 | 128 | 111 | 111 | 67.9 | 80.1 | 51 | 19.2
CC12CC3CC(C)(C1)CC(N)(C3)C2 | 119 | 111 | 120 | 98.4 | 125 | 139 | 134 | 129 | 107 | 89.2 | 49.7 | 105 | 116 | 133 | 113 | 122 | 128 | 134 | 108 | 127 | 100 | 58.5 | 111 | 105 | 114 | 111 | 116 | 132 | 135 | 120 | 113 | 102 | 78
C[C@]12CC[C@H]3[C@@H](CCC4=CC(=O)CC[C@@H]43)[C@@H]1CC[C@@H]2OC(=O)CCc1ccccc1 | – | – | – | – | – | – | – | – | – | – | – | 126 | 115 | 119 | 130 | 114 | 113 | 112 | 133 | 115 | 128 | 78 | 120 | 127 | 115 | 124 | 141 | 135 | 144 | 133 | 128 | 137 | 68.7
COc1cc[nH]c2ncc(C(=O)C(=O)N3CCN(C(=O)c4ccccc4)C[C@H]3C)c1-2 | 137 | 121 | 111 | 105 | 121 | 108 | 106 | 108 | 120 | 100 | 99.1 | 99.9 | 101 | 101 | 101 | 99 | 99.2 | 100 | 99.1 | 107 | 105 | 102 | 109 | 117 | 114 | 115 | 119 | 108 | 108 | 105 | 99.2 | 103 | 91.9
N[C@@H]1CONC1=O | 90.7 | 110 | 112 | 101 | 99.4 | 107 | 104 | 110 | 107 | 94.4 | 105 | 84.4 | 88.7 | 95.7 | 91.6 | 94.4 | 90.6 | 94.2 | 99.4 | 94.6 | 90.1 | 88.7 | 87.4 | 98.8 | 112 | 96 | 99.3 | 101 | 107 | 88 | 96.2 | 89.9 | 93.7
CC(N[C@H]1CCCC[C@@H]1NC(=O)c1ccc(Cl)cc1)c1cccc2ccccc12 (some centres undefined) | 117 | 131 | 112 | 127 | 113 | 110 | 139 | 86.3 | 83 | 28 | 29.5 | 100 | 107 | 120 | 114 | 110 | 113 | 114 | 102 | 105 | 19.9 | 18.2 | 102 | 108 | 113 | 112 | 111 | 117 | 103 | 103 | 107 | 25.4 | 24.2
CC(C)OC(=O)[C@H](C)N[P@](=O)(OC[C@H]1O[C@@H](N2\C=C/C(=O)NC2=O)[C@](C)(F)[C@@H]1O)OC3=CC=CC=C3 | 115 | 125 | 119 | 122 | 127 | 131 | 87.5 | 91 | 40.5 | 34.3 | 40.8 | 101 | 99.8 | 116 | 98.4 | 107 | 99.9 | 95.7 | 98 | 87.3 | 17.5 | 19 | 101 | 110 | 115 | 130 | 114 | 100 | 99.8 | 101 | 81.3 | 23.7 | 24.1
Cc1ccccc1C(=O)Nc1ccc(C(=O)N2CCCC(O)c3cc(Cl)ccc32)c(C)c1 (centres undefined) | 129 | 125 | 123 | 141 | 139 | 121 | 143 | 163 | 147 | 125 | 137 | – | – | – | – | – | – | – | – | – | – | – | – | – | – | – | – | – | – | – | – | – | –
O=C(O)c1cc(/N=N/c2ccc([S+](=O)([O-])Nc3ccccn3)cc2)ccc1O | 102 | 113 | 108 | 104 | 121 | 109 | 104 | 115 | 111 | 105 | 91 | 101 | 107 | 115 | 96.8 | 99.2 | 102 | 102 | 98.2 | 114 | 98.7 | 97.6 | 95.1 | 96.9 | 109 | 94.3 | 106 | 97 | 115 | 111 | 91.2 | 98.9 | 102
C[C@@H](CN1CC(=O)NC(=O)C1)N1CC(=O)NC(=O)C1 | 112 | 125 | 121 | 117 | 113 | 55.7 | 32.8 | 22.3 | 33 | 8.92 | 13.7 | 106 | 113 | 125 | 101 | 113 | 89 | 55.9 | 15.4 | 17.5 | 8.63 | 12.9 | 102 | 111 | 99.9 | 114 | 109 | 83 | 44.7 | 18.8 | 21.5 | 17.2 | 19.8
